Data: patent US20160221992A1, “DENDRITIC COMPOUNDS INCLUDING A CHELATING, FLUOROCHROME OR RECOGNITION AGENT, COMPOSITIONS INCLUDING SAME AND USES THEREOF” (UNIVERSITE DE STRASBOURG, priority 2013, published 2016)

Experiments:
[1] = tested on: murine melanoma (B16FO line); experiment: Quantitative study of tumoral fixation and biodistribution of the radiolabeled compound (ex-vivo gamma counting after IV injection); format: in vivo, C57B16 mice; settings: for Ratio (g)/Al TU/kidneys / Ratio (g)/Al Tu/Liver / Ratio (g)/Al Tu/Lungs / Ratio (g)/Al Tu/blood / Total Elimination (%/Al) / Tumor (g/Al %): Tc99m-radiolabeled, IV
Protocol: C57B16 mice bearing xenografts of murine melanoma (B16FO line) obtained by subcutaneous injection of 300 000 cells suspended in 100 μl of RPMI culture medium are injected subcutaneously in the back. The experiment is performed when the tumors are palpable. i.e. about 10 days […]. All the experiments (tumoral graft, injection and imaging) are carried out under isoflurane/oxygen (2.5%/2.5%) gas anesthesia.
Injection of 50 to 100 microliters of the radiolabeled solution, with a maximum activity of 20 MBQ, by direct intravenous injection (caudal vein). The activity of the empty syringe after injection+compress is also measured for calculating the actual activity injected (actual Ac injected=Ac normalized full syringe—normalized activity (empty syringe and compress). Normalization consists in calculating the theoretical activity at one and the same time chosen as reference (for example the time of injection). The measurements are performed on a regularly calibrated activity meter for medical use (Medisystem©).
(§1) Scintigraphic imaging is carried out using a dedicated small animal micro-5 imager SPECT-CT (BIOSCAN™). A planar scintigraphic image is obtained immediately after injection to verify absence of intracaudal stasis. If there is stasis, the mouse will be sacrificed at late times (24 or 48 h). Static scintigraphic images may be recorded at 2 h, 4 h, 24 h and 48 h (Imager micro-SPECT-CT BIOSCAN©).
This is done ex-vivo by gamma counting of the various samples, using a gamma well counter for medical use, regularly calibrated for the isotopes used (Tc-99m and In-111). The animals are euthanized according to the protocols allowed by the animal ethics committee at 2 h, 4 h, 24 h or 48 h. The main organs are removed (brain, spleen, kidneys, lungs, heart, alimentary canal, liver) as well as a fragment of skin, muscle, bone and a blood sample and the whole tumor. Each sample is weighed and its gamma activity is counted in a sample-changing well counter for dedicated medical use, calibrated for the radioelements used. The animal's carcass is also weighed after removing the tail; these samples are incinerated and their gamma activity is also measured. The gamma activity of the samples containing all the collected urine and the feces is also measured. The activity of each sample is normalized (relative to the time of injection), and the ratio of the activity of each sample is calculated relative to the total activity injected (=the sum of all of the activities measured except that of the tail), expressed in % per gram of tissue, for calculating the ratio of the activity present in the tumor relative to the main organs (liver, kidneys, lungs and blood). The percentage of the activity eliminated is calculated.
The mean values of all of the data for all of the mice whose data are exploitable are calculated, as well as after eliminating the animals with urinary excretion that is too quick (>50% at 2 h or 75% at 4 h, as well as the mice with tumors >2 g, as the existence of necrosis may distort the calculation of the ratio of fixation in the tumor).
The biodistribution data of the various dendrimer compounds coupled to the IFC01102 ligand (also called amine R) and to a chelating agent are compared with those of the ligand alone coupled to the DOTA chelating agent (compound AP045) and radiolabeled with the same radioelement. 8.5 Results with Compound APAG9-1 (Radiolabeled with Tc99m) The radiochemical purity is above 95%, according to the chromatographic profile obtained as described above (example 5). 12 animals were injected. The average activity injected is 3.5±2.4 MBq. 2 animals were euthanized at 2 h, 4 at 24 h and 48 h post-injection. Examples of planar image immediately post-injection and 2 hours post-injection are illustrated in FIG. 3.

[2] = Lymphatic drainage after intradermal injection in the hind paws (sentinel lymph node characterization, scintigraphy/SPECT); format: in vivo, mouse; settings: 24 hours after intradermal injection at the two hind paws, Tc99m, 2.8 MBq
Protocol: as §1, with “performed” for “carried out”, “stasis.” for “stasis. If there is stasis, the mouse will be sacrificed at late times (24 or 48 h).”
Intradermal injection of 1 to 20 microliters of a suspension of radiolabeled dendrimers with a hypodermic syringe in the pad of the hindpaw of a nude mouse. A whole-body planar scintigraphic image of the mouse is obtained 5 minutes after injection to verify absence of passage of the compound through the blood. Acquisition of tomographic images (SPECT) every 30 minutes to monitor the lymphatic drainage of the compound and determine the time of disappearance of the signal in the popliteal lymph node. 9.3.a Injection of Compound X1 Labeled with Tc99m (Generation 2 Molecule)

[3] = 48 post-IV, first series (all animals)
[4] = 48 post-IV, second series (mice with too quick urinary secretion or too large tumor eliminated)
[5] = 2 h post-iv, first series (all animals)
[6] = 2 h post-iv, second series (mice with too quick urinary secretion or too large tumor eliminated)
[7] = 4 h post-IV, first series (all animals)
[8] = 4 h post-IV, second series (mice with too quick urinary secretion or too large tumor eliminated)
[9] = 24 h post-IV, first series (all animals)
[10] = 24 h post-IV, second series (mice with too quick urinary secretion or too large tumor eliminated)

With `CCN(CC)CCNC(=O)c1cnc2cc(NC(=O)NCCOCCOCCNC(=O)CCOCCOCCOCCOCCOCCOCCOCCOCCOc3c(OCCOCCOCCOCCOC)cc(C(=O)NCCCNC(=O)C(CCCNC(=O)c4cccc(O)c4O)(CCCNC(=O)c4cccc(O)c4O)CCCNC(=O)c4cccc(O)c4O)cc3OCCOCCOCCOCCOC)ccc2n1` [APAG22-1] the “Ratio (g)/Al TU/kidneys” value [1, 3] was 1.74E−02, the “Ratio (g)/Al Tu/Liver” value [1, 3] was 1.17E−01 and the “Ratio (g)/Al Tu/Lungs” value [1, 3] was 2.22E+00. The “Ratio (g)/Al Tu/blood” value [1, 3] was 3.80E+00, the “Total Elimination (%/Al)” value [1, 3] was 7.36E+01 %/Al and the “Tumor (g/Al %)” value [1, 3] was 6.32E−01 g/Al %. For the same molecule, the “Ratio (g)/Al TU/kidneys” value [1, 4] was 1.74E−02, the “Ratio (g)/Al Tu/Liver” value [1, 4] was 1.17E−01 and the “Ratio (g)/Al Tu/Lungs” value [1, 4] was 2.22E+00. For the same molecule, the “Ratio (g)/Al Tu/blood” value [1, 4] was 3.80E+00, the “Total Elimination (%/Al)” value [1, 4] was 7.32E+01 %/Al and the “Tumor (g/Al %)” value [1, 4] was 6.68E−01 g/Al %. The “Ratio (g)/Al TU/kidneys” value [1, 5] was 3.36E−01, the “Ratio (g)/Al Tu/Liver” value [1, 5] was 3.06E−01 and the “Ratio (g)/Al Tu/Lungs” value [1, 5] was 5.44E−01. For the same molecule, the “Ratio (g)/Al Tu/blood” value [1, 5] was 3.69E−01, the “Total Elimination (%/Al)” value [1, 5] was 2.59E+01 %/Al and the “Tumor (g/Al %)” value [1, 5] was 2.98E+00 g/Al %. The “Ratio (g)/Al TU/kidneys” value [1, 6] was 4.75E−01, the “Ratio (g)/Al Tu/Liver” value [1, 6] was 3.15E−01 and the “Ratio (g)/Al Tu/Lungs” value [1, 6] was 4.17E−01. For the same molecule, the “Ratio (g)/Al Tu/blood” value [1, 6] was 1.10E+00, the “Total Elimination (%/Al)” value [1, 6] was 1.46E+01 %/Al and the “Tumor (g/Al %)” value [1, 6] was 3.50E+00 g/Al %. The “Ratio (g)/Al TU/kidneys” value [1, 7] was 1.09E−01, the “Ratio (g)/Al Tu/Liver” value [1, 7] was 1.90E−01 and the “Ratio (g)/Al Tu/Lungs” value [1, 7] was 9.45E−01. For the same molecule, the “Ratio (g)/Al Tu/blood” value [1, 7] was 4.62E−01, the “Total Elimination (%/Al)” value [1, 7] was 3.58E+01 %/Al and the “Tumor (g/Al %)” value [1, 7] was 2.14E+00 g/Al %. For the same molecule, the “Ratio (g)/Al TU/kidneys” value [1, 8] was 1.09E−01, the “Ratio (g)/Al Tu/Liver” value [1, 8] was 1.90E−01 and the “Ratio (g)/Al Tu/Lungs” value [1, 8] was 9.45E−01. The “Ratio (g)/Al Tu/blood” value [1, 8] was 4.62E−01, the “Total Elimination (%/Al)” value [1, 8] was 3.58E+01 %/Al and the “Tumor (g/Al %)” value [1, 8] was 2.14E+00 g/Al %. The “Ratio (g)/Al TU/kidneys” value [1, 9] was 2.11E−02, the “Ratio (g)/Al Tu/Liver” value [1, 9] was 1.20E−01 and the “Ratio (g)/Al Tu/Lungs” value [1, 9] was 2.26E+00. For the same molecule, the “Ratio (g)/Al Tu/blood” value [1, 9] was 9.00E+00, the “Total Elimination (%/Al)” value [1, 9] was 6.45E+01 %/Al and the “Tumor (g/Al %)” value [1, 9] was 1.19E+00 g/Al %. For the same molecule, the “Ratio (g)/Al TU/kidneys” value [1, 10] was 2.11E−02, the “Ratio (g)/Al Tu/Liver” value [1, 10] was 1.20E−01 and the “Ratio (g)/Al Tu/Lungs” value [1, 10] was 2.26E+00. For the same molecule, the “Ratio (g)/Al Tu/blood” value [1, 10] was 9.00E+00, the “Total Elimination (%/Al)” value [1, 10] was 5.45E+01 %/Al and the “Tumor (g/Al %)” value [1, 10] was 1.19E+00 g/Al %. For the same molecule, the “tumoral uptake compared with the ligand alone (AP045)” value ([1]; APAG22-1: at two hours post-IV) was “higher”, the “time at which the maximum tumoral uptake is observed” value ([1]; after IV injection of the radiolabeled compound) was 2 h and the “elimination compared with the ligand alone (AP045)” value ([1]; at 24 hours and 48 hours) was “far greater”. For the same molecule, the “Tumor to Liver ratio compared with the ligand alone (AP045)” value ([1]; mouse, in vivo) was “much higher”.
With `COCCOCCOCCOCCOc1cc(COc2cc(OCc3cc(OCCOCCOCCOCCOC)c(OCCOCCOCCOCCOC)c(OCCOCCOCCOCCOC)c3)cc(C(=O)NCCCNC(=O)C(CCCNC(=O)c3cccc(O)c3O)(CCCNC(=O)c3cccc(O)c3O)CCCNC(=O)c3cccc(O)c3O)c2)cc(OCCOCCOCCOCCOC)c1OCCOCCOCCOCCOC` [X1] the hepatic activity [2] was “very low” and the “level of urinary elimination” value [2] was “very high”.
